The values that follow are results of earlier work, collected in patent US20190046552A1, “COMPOSITIONS AND METHODS FOR THE TREATMENT OF HCV INFECTION” (priority 2015, published 2019).

This series concerns panel of cell lines. Conditions: read-out: 50% cytotoxic concentration (CC50), Coughlin et al. 2010; cited from earlier work.

Consider `CO[C@H]1C(OP(=O)(OC[C@H]2O[C@@H](n3cnc4c(N)ncnc43)CC2O)SCOC(=O)OC(C)C)[C@@H](CO)O[C@H]1n1ccc(=O)[nH]c1=O` (stereo partly shown) [Formula (II)], for which the CC50 is greater than 1000 µM.
